Assay results taken from US9113629B2, “4-amino-6-(4-substituted-phenyl)-picolinates and 6-amino-2-(4-substituted-phenyl)-pyrimidine-4-carboxylates and their use as herbicides” (DOW AGROSCIENCES LLC, priority 2013, dated 2015).
Like-named read-outs stand apart in the source and are kept apart here.

What was measured:
[1] = test system: Key Grass and Sedge Weeds as well as Grass Crops; test: Post-emergent Test II herbicidal activity (Table 6); assay type: in vivo; details: post-emergence, 336 h; for pest or weed control at 70 g/ha: application rate 70 g ai/ha; for pest or weed control at 140 g/ha: application rate 140 g ai/ha
Outline: (§1)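 Foliar application at 187 L/ha to greenhouse-grown seedlings (first or second true leaf); subirrigation thereafter. Visual 0–100% injury at 14 d relative to untreated plants.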

[2] = test system: Key Broadleaf Weed and Crop Species; test: Post-emergent Test II herbicidal activity (Table 5); assay type: in vivo; details: post-emergence, 336 h, post-emergent, 14 days after application; for pest or weed control at 70 g/ha: 70 g ai/ha; for pest or weed control at 140 g/ha: 140 g ai/ha
Outline: as §1

[3] = Triticum aestivum, TRZSS (wheat), read-out: Visual Growth Reduction (%) 14 Days After Application, TRZSS
[4] = CYPES: yellow nutsedge (Cyperus esculentus), read-out: Visual Growth Reduction (%) 14 Days After Application, CYPES
[5] = DIGSA: crabgrass (Digitaria sanguinalis), read-out: Visual Growth Reduction (%) 14 Days After Application, DIGSA
[6] = ECHCG: barnyardgrass (Echinochloa crus-galli), read-out: Visual Growth Reduction (%) 14 Days After Application, ECHCG
[7] = ORYSA: rice (Oryza sativa), read-out: Visual Growth Reduction (%) 14 Days After Application, ORYSA
[8] = SETFA: giant foxtail (Setaria faberi), read-out: Visual Growth Reduction (%) 14 Days After Application, SETFA
[9] = SORVU: grain sorghum (Sorghum vulgare), read-out: Visual Growth Reduction (%) 14 Days After Application, SORVU
[10] = ZEAMX: maize, corn (Zea mays), read-out: Visual Growth Reduction (%) 14 Days After Application, ZEAMX
[11] = ABUTH: velvetleaf (Abutilon theophrasti), read-out: Visual Growth Reduction (%) 14 Days After Application ABUTH
[12] = AMARE: redroot pigweed (Amaranthus retroflexus), read-out: Visual Growth Reduction (%) 14 Days After Application AMARE
[13] = BRSNN: oilseed-rape, canola (Brassica napus), read-out: Visual Growth Reduction (%) 14 Days After Application BRSNN
[14] = CHEAL: lambsquarters (Chenopodium album), read-out: Visual Growth Reduction (%) 14 Days After Application CHEAL
[15] = EPHHL: wild poinsettia (Euphorbia heterophylla), read-out: Visual Growth Reduction (%) 14 Days After Application EPHHL
[16] = HELAN: sunflower (Helianthus annuus), read-out: Visual Growth Reduction (%) 14 Days After Application HELAN
[17] = VIOTR: wild pansy (Viola tricolor), read-out: Visual Growth Reduction (%) 14 Days After Application VIOTR

Compound	pest or weed control at 70 g/ha [1, 3] [%]	pest or weed control at 140 g/ha [1, 3] [%]	pest or weed control at 70 g/ha [1, 4] [%]	pest or weed control at 140 g/ha [1, 4] [%]	pest or weed control at 70 g/ha [1, 5] [%]	pest or weed control at 140 g/ha [1, 5] [%]	pest or weed control at 70 g/ha [1, 6] [%]	pest or weed control at 140 g/ha [1, 6] [%]	pest or weed control at 70 g/ha [1, 7] [%]	pest or weed control at 140 g/ha [1, 7] [%]	pest or weed control at 70 g/ha [1, 8] [%]	pest or weed control at 140 g/ha [1, 8] [%]	pest or weed control at 70 g/ha [1, 9] [%]	pest or weed control at 140 g/ha [1, 9] [%]	pest or weed control at 70 g/ha [1, 10] [%]	pest or weed control at 140 g/ha [1, 10] [%]	pest or weed control at 70 g/ha [2, 11] [%]	pest or weed control at 140 g/ha [2, 11] [%]	pest or weed control at 70 g/ha [2, 12] [%]	pest or weed control at 140 g/ha [2, 12] [%]	other results
C=Cc1c(C(=O)O)nc(-c2ccc(C(F)(F)F)c(F)c2F)c(F)c1N [Compound 61]	30 to 44	30 to 44	45 to 59	45 to 59	0 to 29	0 to 29	45 to 59	60 to 74	0 to 29	0 to 29	0 to 29	0 to 29	45 to 59	60 to 74	60 to 74	60 to 74	85 to 94	95 to 100	95 to 100	95 to 100	pest or weed control at 70 g/ha [2, 13]: 0 to 29%; pest or weed control at 140 g/ha [2, 13]: 0 to 29%; pest or weed control at 70 g/ha [2, 14]: 75 to 84%; pest or weed control at 140 g/ha [2, 14]: 85 to 94%; pest or weed control at 70 g/ha [2, 15]: 95 to 100%; pest or weed control at 140 g/ha [2, 15]: 95 to 100%; pest or weed control at 70 g/ha [2, 16]: 95 to 100%; pest or weed control at 140 g/ha [2, 16]: 95 to 100%; pest or weed control at 70 g/ha [2, 17]: 0 to 29%; pest or weed control at 140 g/ha [2, 17]: 0 to 29%
Nc1c(Cl)c(C(=O)O)nc(-c2ccc(I)c(F)c2)c1Cl [Compound 145, 4-Amino-3,5-dichloro-6-(3-fluoro-4-iodophenyl)picolinic acid]	60 to 74	60 to 74	45 to 59	45 to 59	85 to 94	85 to 94	75 to 84	75 to 84	0 to 29	0 to 29	75 to 84	75 to 84	85 to 94	85 to 94	75 to 84	75 to 84	45 to 59	60 to 74	75 to 84	95 to 100	pest or weed control at 70 g/ha [2, 13]: 95 to 100%; pest or weed control at 140 g/ha [2, 13]: 95 to 100%; pest or weed control at 70 g/ha [2, 14]: 95 to 100%; pest or weed control at 140 g/ha [2, 14]: 95 to 100%; pest or weed control at 70 g/ha [2, 15]: 60 to 74%; pest or weed control at 140 g/ha [2, 15]: 60 to 74%; pest or weed control at 70 g/ha [2, 16]: 95 to 100%; pest or weed control at 140 g/ha [2, 16]: 95 to 100%; pest or weed control at 70 g/ha [2, 17]: 0 to 29%; pest or weed control at 140 g/ha [2, 17]: 0 to 29%
